Measurements reported in ChEMBL document CHEMBL1201862, “PubChem BioAssay data set” (2004).
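In this assay, cells in 96-well plates receive the compound at five concentrations for 48 hours. Endpoints are linearly interpolated between the surrounding concentrations. At the GI50, growth is halved.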 Calls of active or inactive are those of the source. No stated cut-off is given here; in the data, active = GI50 up to about 1.1 µM and inactive = higher.

Legend:
Assay in all cases: NCI-60 cell line screen, 48 h
[1] = test system: EKVX
[2] = test system: SK-MEL-28
[3] = test system: NCI/ADR-RES
[4] = test system: T47D
[5] = test system: U-251
[6] = test system: Hs-578T
[7] = test system: RXF 393
[8] = test system: BT-549
[9] = test system: CCRF-CEM
[10] = test system: OVCAR-4
[11] = test system: 786-0
[12] = test system: A498
[13] = test system: LOX IMVI
[14] = test system: ACHN
[15] = test system: DU-145
[16] = test system: HCT-15
[17] = test system: SW-620
[18] = test system: DMS-114
[19] = test system: MDA-MB-231
[20] = test system: UACC-257

For `NS(=O)(=O)c1ccc(NC(=O)c2cccc3cc4ccccc4nc23)cc1`, the GI50 [1] was > 100 µM (inactive), the GI50 [2] was > 91 µM (inactive) and the GI50 [3] was 11.8 µM (inactive). For the same compound, the GI50 [4] was 96.6 µM (inactive), the GI50 [5] was 23.4 µM (inactive) and the GI50 [6] was 8.53 µM (inactive). For the same compound, the GI50 [7] was 17.7 µM (inactive), the GI50 [8] was 42.4 µM (inactive) and the GI50 [9] was 7.71 µM (inactive). The GI50 [10] was 21 µM (inactive), the GI50 [11] was 12.8 µM (inactive) and the GI50 [12] was > 43.7 µM (inactive). For the same compound, the GI50 [13] was 6.14 µM (inactive), the GI50 [14] was 6.64 µM (inactive) and the GI50 [15] was > 100 µM (inactive). The GI50 [16] was 12.6 µM, the GI50 [17] was 6.04 µM (inactive) and the GI50 [18] was 97.7 µM (inactive). For the same compound, the GI50 [19] was > 100 µM (inactive) and the GI50 [20] was 71.4 µM (inactive).
